In patent US20110053770A1, “SUBSTITUTED AMINOTHIAZOLES AND THEIR USE AS FUNGICIDES” (BAYER CROPSCIENCE AG, priority 2009, published 2011):
Marks after values point to notes of the source that are not given here.

Test: logP by HPLC on reversed-phase columns (C 18), EEC directive 79/831 Annex V.A8
Format: physicochemical
Conditions: for log P (***) / log P (**): LC-MS; for log P (***): neutral range, pH 7.8, 0.001 molar aqueous ammonium bicarbonate and acetonitrile; for log P (*) / log P (**): acidic range; for log P (*): pH 2.3, 0.1% aqueous phosphoric acid and acetonitrile; for log P (**): pH 2.7, 0.1% aqueous formic acid and acetonitrile
Experimental: Calibration was carried out using unbranched alkan-2-ones (having from 3 to 16 carbon atoms) with known logP values (the logP values were determined by the retention times using linear interpolation between two successive alkanones).

Fc1cccc(F)c1Oc1ccccc1-c1csc(N=C2CCCCN2)n1 [compound 76, 4-[2-(2,6-difluorophenoxy)phenyl]-N-[(2E/Z)-piperidin-2-ylidene]-1,3-thiazole-2-amine]
log P (***): 3.78
log P (*): 1.8

Fc1ccc(Oc2ccccc2-c2csc(N=C3CCCCN3)n2)c(F)c1F [compound 77, N-[(2E/Z)-piperidin-2-ylidene]-4-[2-(2,3,4-trifluorophenoxy)phenyl]-1,3-thiazole-2-amine]
log P (***): 4.17
log P (*): 2.01

Fc1ccc(Oc2ccccc2-c2csc(N=C3CCCCN3)n2)cc1F [compound 78, 4-[2-(3,4-difluorophenoxy)phenyl]-N-[(2E/Z)-piperidin-2-ylidene]-1,3-thiazole-2-amine]
log P (***): 4.18
log P (*): 1.83

Cc1ccc(Oc2ccccc2-c2csc(N=C3CCCCN3)n2)cc1 [compound 79, 4-[2-(4-methylphenoxy)phenyl]-N-[(2E/Z)-piperidin-2-ylidene]-1,3-thiazole-2-amine]
log P (***): 4.51
log P (*): 2.17

Fc1ccc(F)c(Oc2ccccc2-c2csc(N=C3CCCCN3)n2)c1 [compound 80, 4-[2-(2,5-difluorophenoxy)phenyl]-N-[(2E/Z)-piperidin-2-ylidene]-1,3-thiazole-2-amine]
log P (***): 3.98
log P (*): 1.94

c1ccc(Cc2ccccc2-c2csc(N=C3CCCCN3)n2)cc1 [compound 81, 4-(2-benzylphenyl)-N-[(2E/Z)-piperidin-2-ylidene]-1,3-thiazole-2-amine]
log P (***): 2.02***

Fc1cc(F)c(Oc2ccccc2-c2csc(N=C3CCCCN3)n2)c(F)c1 [compound 82, N-[(2E/Z)-piperidin-2-ylidene]-4-[2-(2,4,6-trifluorophenoxy)phenyl]-1,3-thiazole-2-amine]
log P (***): 3.96
log P (*): 2.02

Fc1cccc(Oc2ccccc2-c2csc(N=C3CCCCN3)n2)c1 [compound 83, 4-[2-(3-fluorophenoxy)phenyl]-N-[(2E/Z)-piperidin-2-ylidene]-1,3-thiazole-2-amine]
log P (*): 1.95*

Brc1ccc(Oc2ccccc2-c2csc(N=C3CCCCN3)n2)cc1 [compound 84, 4-[2-(4-bromophenoxy)phenyl]-N-[(2E/Z)-piperidin-2-ylidene]-1,3-thiazole-2-amine]
log P (*): 2.14*

Clc1cccc(Oc2ccccc2-c2csc(N=C3CCCCN3)n2)c1 [compound 85, 4-[2-(3-chlorophenoxy)phenyl]-N-[(2E/Z)-piperidin-2-ylidene]-1,3-thiazole-2-amine]
log P (*): 2.16*

Brc1ccccc1Oc1ccccc1-c1csc(N=C2CCCCN2)n1 [compound 86, 4-[2-(2-bromophenoxy)phenyl]-N-[(2E/Z)-piperidin-2-ylidene]-1,3-thiazole-2-amine]
log P (***): 4.38
log P (*): 2.06

Brc1cccc(Oc2ccccc2-c2csc(N=C3CCCCN3)n2)c1 [compound 87, 4-[2-(3-bromophenoxy)phenyl]-N-[(2E/Z)-piperidin-2-ylidene]-1,3-thiazole-2-amine]
log P (***): 4.71
log P (*): 2.19

Fc1ccc(Cc2ccccc2-c2csc(N=C3CCCCN3)n2)c(F)c1 [compound 88, 4-[2-(2,4-difluorobenzyl)phenyl]-N-[(2E/Z)-piperidin-2-ylidene]-1,3-thiazole-2-amine]
log P (***): 4.27
log P (*): 2.04

Clc1cc(Cl)cc(Cc2ccccc2-c2csc(N=C3CCCCN3)n2)c1 [compound 89, 4-[2-(3,5-dichlorobenzyl)phenyl]-N-[(2E/Z)-piperidin-2-ylidene]-1,3-thiazole-2-amine]
log P (**): 2.43
log P (***): 5.35

Fc1ccc(Cc2ccccc2-c2csc(N=C3CCCCN3)n2)cc1 [compound 90, 4-[2-(4-fluorobenzyl)phenyl]-N-[(2E/Z)-piperidin-2-ylidene]-1,3-thiazole-2-amine]
log P (**): 1.95
log P (***): 4.19

Clc1cccc(Cl)c1Cc1ccccc1-c1csc(N=C2CCCCN2)n1 [compound 91, 4-[2-(2,6-dichlorobenzyl)phenyl]-N-[(2E/Z)-piperidin-2-ylidene]-1,3-thiazole-2-amine]
log P (**): 2.16
log P (***): 4.36

Clc1ccc(Cc2ccccc2-c2csc(N=C3CCCCN3)n2)cc1Cl [compound 92, 4-[2-(3,4-dichloro-benzyl)phenyl]-N-[(2E/Z)-piperidin-2-ylidene]-1,3-thiazole-2-amine]
log P (***): 5.07
log P (*): 2.36

Clc1ccc(Cc2ccccc2-c2csc(N=C3CCCCN3)n2)cc1 [compound 93, 4-[2-(4-chlorobenzyl)-phenyl]-N-[(2E/Z)-piperidin-2-ylidene]-1,3-thiazole-2-amine]
log P (**): 2.17
log P (***): 4.7

c1ccc(Cc2ccc(-c3csc(N=C4CCCCN4)n3)cc2)cc1 [compound 94, 4-(4-benzylphenyl)-N-[(2E/Z)-piperidin-2-ylidene]-1,3-thiazole-2-amine]
log P (**): 2.07
log P (***): 4.28

Cc1ccc(Oc2ccccc2-c2csc(N=C3CCCN3)n2)c(C)c1 [compound 95, 4-[2-(2,4-dimethylphenoxy)phenyl]-N-[(2E/Z)-pyrrolidin-2-ylidene]-1,3-thiazole-2-amine]
log P (**): 2.52
log P (***): 2.48

Clc1ccc(-c2csc(N=C3CCCN3)n2)cc1 [compound 96, 4-(4-chlorophenyl)-N-[(2E/Z)-pyrrolidin-2-ylidene]-1,3-thiazole-2-amine]
log P (**): 1.57**

Fc1ccc(Oc2ccc(-c3csc(N=C4CCCN4)n3)cc2)c(F)c1 [compound 97, 4-[4-(2,4-difluorophenoxy)phenyl]-N-[(2E/Z)-pyrrolidin-2-ylidene]-1,3-thiazole-2-amine]
log P (***): 3.59
log P (*): 2.03

c1ccc(Oc2ccccc2-c2csc(N=C3CCCN3)n2)cc1 [compound 98, 4-(2-phenoxyphenyl)-N-[(2E/Z)-pyrrolidin-2-ylidene]-1,3-thiazole-2-amine]
log P (**): 2.05
log P (***): 3.54
log P (*): 1.92

Clc1ccc(Oc2ccccc2-c2csc(N=C3CCCN3)n2)c(Cl)c1 [compound 99, 4-[2-(2,4-dichlorophenoxy)phenyl]-N-[(2E/Z)-pyrrolidin-2-ylidene]-1,3-thiazole-2-amine]
log P (**): 2.49
log P (***): 4.43
log P (*): 2.49

CC(C)(C)c1cc(Oc2ccccc2-c2csc(N=C3CCCN3)n2)ccc1Cl [compound 101, 4-[2-(3-tert-butyl-4-chlorophenoxy)phenyl]-N-[(2E/Z)-pyrrolidin-2-ylidene]-1,3-thiazole-2-amine]
log P (**): 3.09
log P (***): 5.53
log P (*): 3.09

Fc1ccc(Oc2ccccc2-c2csc(N=C3CCCN3)n2)c(F)c1 [compound 102, 4-[2-(2,4-difluorophenoxy)phenyl]-N-[(2E/Z)-pyrrolidin-2-ylidene]-1,3-thiazole-2-amine]
log P (***): 3.55
log P (*): 1.98

Clc1ccc(-c2csc(N=C3CCCCN3)n2)cc1 [compound 103, 4-(4-chlorophenyl)-N-[(2E/Z)-piperidin-2-ylidene]-1,3-thiazole-2-amine]
log P (**): 1.68
log P (***): 3.47
log P (*): 1.68

Clc1ccc(-c2csc(N=C3CCCCN3)n2)c(Cl)c1 [compound 104, 4-(2,4-dichlorophenyl)-N-[(2E/Z)-piperidin-2-ylidene]-1,3-thiazole-2-amine]
log P (**): 1.76
log P (***): 3.92
log P (*): 1.76

FC(F)(F)c1cccc(-c2csc(N=C3CCCCN3)n2)c1 [compound 105, N-[(2E/Z)-piperidin-2-ylidene]-4-[3-(trifluoromethyl)phenyl]-1,3-thiazole-2-amine]
log P (**): 1.75**

Brc1cccc(-c2csc(N=C3CCCCN3)n2)c1 [compound 106, 4-(3-bromophenyl)-N-[(2E/Z)-piperidin-2-ylidene]-1,3-thiazole-2-amine]
log P (**): 1.53**

Brc1ccccc1-c1csc(N=C2CCCCN2)n1 [compound 107, 4-(2-bromophenyl)-N-[(2E/Z)-piperidin-2-ylidene]-1,3-thiazole-2-amine]
log P (**): 1.38**
